{"source": "ChEMBL document CHEMBL5380785", "about": "“Application of Novel Degraders Employing Autophagy for Expediting Medicinal Research” (J Med Chem, 2023)", "key": {"[1]": {"experiment": "Downregulation of extracellular oleic acid induced lipid droplets in MEF cells", "assay_type": "functional, Mus musculus"}, "Cortical neuron": {"system": "Cortical neuron", "experiment": "Induction of huntingtin polyQ mutant degradation in mouse primary cortical neuron", "assay_type": "cell-based", "settings": "dose 10.0 µM"}, "[2]": {"molecular_target": "T1, Nicotinamide phosphoribosyltransferase (Homo sapiens, UniProt P43490)", "experiment": "Induction of NAMPT degradation in human A2780 cells", "assay_type": "cell-based"}, "[3]": {"molecular_target": "T1, Nicotinamide phosphoribosyltransferase", "experiment": "Induction of NAMPT degradation in human A2780 cells at 3 uM relative to control", "assay_type": "cell-based"}, "[4]": {"molecular_target": "T2, Methionine aminopeptidase 2 (Homo sapiens, UniProt P50579)", "T2 sequence (P50579 whole entry)": "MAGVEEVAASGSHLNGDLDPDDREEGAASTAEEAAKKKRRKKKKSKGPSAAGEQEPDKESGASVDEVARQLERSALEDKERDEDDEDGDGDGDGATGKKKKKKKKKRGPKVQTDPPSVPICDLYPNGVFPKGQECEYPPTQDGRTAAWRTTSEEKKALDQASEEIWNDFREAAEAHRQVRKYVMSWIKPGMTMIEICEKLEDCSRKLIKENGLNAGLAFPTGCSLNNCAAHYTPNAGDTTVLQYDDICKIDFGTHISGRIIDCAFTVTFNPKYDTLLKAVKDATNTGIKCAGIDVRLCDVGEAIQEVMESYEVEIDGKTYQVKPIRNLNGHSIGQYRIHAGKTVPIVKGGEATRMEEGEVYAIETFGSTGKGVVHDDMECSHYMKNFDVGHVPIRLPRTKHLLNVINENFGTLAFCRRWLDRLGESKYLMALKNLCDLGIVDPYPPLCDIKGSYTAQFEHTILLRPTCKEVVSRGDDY", "experiment": "Induction of MetAP2 degradation in human U87MG cells", "assay_type": "cell-based", "settings": "u87mg human egfr viii"}, "[5]": {"molecular_target": "T2, Methionine aminopeptidase 2", "experiment": "Induction of MetAP2 degradation in human HEK293 cells", "assay_type": "cell-based"}, "[6]": {"molecular_target": "T3, Sequestosome-1/Estrogen receptor beta (Homo sapiens, UniProt Q92731+Q13501)", "T3 sequence (Q92731 whole entry)": "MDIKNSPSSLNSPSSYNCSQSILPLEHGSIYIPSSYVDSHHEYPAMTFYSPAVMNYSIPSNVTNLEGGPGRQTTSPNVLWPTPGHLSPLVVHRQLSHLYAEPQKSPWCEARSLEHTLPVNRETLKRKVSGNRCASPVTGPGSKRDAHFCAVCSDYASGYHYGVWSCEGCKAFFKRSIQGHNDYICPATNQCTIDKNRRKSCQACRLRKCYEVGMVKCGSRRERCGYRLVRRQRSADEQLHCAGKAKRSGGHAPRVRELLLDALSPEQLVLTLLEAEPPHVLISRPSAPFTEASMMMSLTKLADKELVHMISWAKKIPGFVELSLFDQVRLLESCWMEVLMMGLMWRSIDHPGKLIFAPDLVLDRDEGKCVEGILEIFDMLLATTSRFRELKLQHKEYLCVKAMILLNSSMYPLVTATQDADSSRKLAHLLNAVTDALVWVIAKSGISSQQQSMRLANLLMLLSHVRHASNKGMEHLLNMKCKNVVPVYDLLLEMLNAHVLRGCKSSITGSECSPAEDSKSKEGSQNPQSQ", "T3 sequence (Q13501 whole entry)": "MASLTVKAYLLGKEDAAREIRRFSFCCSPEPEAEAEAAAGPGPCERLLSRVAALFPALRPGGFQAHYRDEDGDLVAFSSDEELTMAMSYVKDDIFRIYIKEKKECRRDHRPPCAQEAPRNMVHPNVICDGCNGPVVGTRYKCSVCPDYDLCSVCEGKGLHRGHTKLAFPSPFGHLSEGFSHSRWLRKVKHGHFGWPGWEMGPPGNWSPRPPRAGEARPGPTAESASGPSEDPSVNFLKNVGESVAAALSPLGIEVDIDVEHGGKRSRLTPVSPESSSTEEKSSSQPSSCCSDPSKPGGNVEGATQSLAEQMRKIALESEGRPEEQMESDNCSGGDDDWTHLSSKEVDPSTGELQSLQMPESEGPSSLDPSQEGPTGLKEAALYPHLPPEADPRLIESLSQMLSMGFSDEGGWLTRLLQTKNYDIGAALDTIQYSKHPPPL", "experiment": "Autotac activity at p62/ERbeta degradation in human ACHN cells", "assay_type": "cell-based"}, "[7]": {"molecular_target": "T3, Sequestosome-1/Estrogen receptor beta", "experiment": "Autotac activity at p62/ERbeta degradation in human MCF7 cells", "assay_type": "cell-based"}, "[8]": {"molecular_target": "T3, Sequestosome-1/Estrogen receptor beta", "experiment": "Autotac activity at p62/ERbeta degradation in HEK293T cells", "assay_type": "cell-based"}, "Estrogen receptor beta [9]": {"molecular_target": "T4, Estrogen receptor beta (Homo sapiens, UniProt Q92731)", "T4 sequence (Q92731 whole entry)": "as the sequence (Q92731 whole entry) above", "experiment": "Induction of ERbeta degradation in human HEK293T cells", "assay_type": "cell-based"}, "Estrogen receptor beta [10]": {"molecular_target": "T4, Estrogen receptor beta", "experiment": "Induction of ERbeta degradation in human MCF7 cells", "assay_type": "cell-based"}, "Estrogen receptor beta [11]": {"molecular_target": "T4, Estrogen receptor beta", "experiment": "Induction of ERbeta degradation in human ACHN cells", "assay_type": "cell-based"}, "[12]": {"experiment": "Induction of huntingtin polyQ mutant degradation in human A 172 cells", "assay_type": "cell-based"}, "[13]": {"molecular_target": "Sequestosome-1/Microtubule-associated protein tau (Homo sapiens, UniProt P10636+Q13501, P618L)", "sequence (P10636 2-758 P618L limits assumed, stated change not applied)": "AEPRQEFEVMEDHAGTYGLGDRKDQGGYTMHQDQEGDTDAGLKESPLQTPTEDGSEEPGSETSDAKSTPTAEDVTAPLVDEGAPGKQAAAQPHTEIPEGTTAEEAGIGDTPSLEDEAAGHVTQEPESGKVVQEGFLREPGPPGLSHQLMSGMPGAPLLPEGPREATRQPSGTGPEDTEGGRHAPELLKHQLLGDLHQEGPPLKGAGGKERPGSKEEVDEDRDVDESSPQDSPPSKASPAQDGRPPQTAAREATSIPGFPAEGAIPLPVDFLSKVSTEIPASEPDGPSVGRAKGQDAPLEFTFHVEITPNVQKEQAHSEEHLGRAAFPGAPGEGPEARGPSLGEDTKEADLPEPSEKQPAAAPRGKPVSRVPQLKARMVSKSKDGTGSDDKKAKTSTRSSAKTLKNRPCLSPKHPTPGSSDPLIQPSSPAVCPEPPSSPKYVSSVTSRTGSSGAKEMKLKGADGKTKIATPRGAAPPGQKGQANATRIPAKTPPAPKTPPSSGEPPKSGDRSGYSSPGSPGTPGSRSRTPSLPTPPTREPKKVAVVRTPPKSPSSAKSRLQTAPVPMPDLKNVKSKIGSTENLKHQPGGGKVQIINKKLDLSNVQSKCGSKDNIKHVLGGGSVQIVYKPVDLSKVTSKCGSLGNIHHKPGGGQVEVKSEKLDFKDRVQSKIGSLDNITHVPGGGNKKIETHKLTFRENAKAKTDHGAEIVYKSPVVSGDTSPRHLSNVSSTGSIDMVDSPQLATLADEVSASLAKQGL", "sequence (Q13501 2-440 limits assumed, stated change not applied)": "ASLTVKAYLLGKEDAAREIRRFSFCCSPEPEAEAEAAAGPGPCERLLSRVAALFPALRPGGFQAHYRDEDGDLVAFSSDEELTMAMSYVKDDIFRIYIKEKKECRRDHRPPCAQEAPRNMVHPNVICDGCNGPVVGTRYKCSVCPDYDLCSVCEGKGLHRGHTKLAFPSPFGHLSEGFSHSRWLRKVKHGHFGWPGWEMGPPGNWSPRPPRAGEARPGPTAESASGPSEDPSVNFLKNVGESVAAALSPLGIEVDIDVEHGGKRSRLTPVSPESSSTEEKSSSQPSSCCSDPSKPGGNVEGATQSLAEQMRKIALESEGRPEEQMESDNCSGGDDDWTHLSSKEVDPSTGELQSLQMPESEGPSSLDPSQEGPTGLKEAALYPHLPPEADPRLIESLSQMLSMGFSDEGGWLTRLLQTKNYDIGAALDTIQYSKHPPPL", "experiment": "Autotac activity at p62/tau P301L mutant in human SH-SY5Y cells assessed as tau P301L degradation", "assay_type": "cell-based"}, "Androgen receptor": {"molecular_target": "T5, Androgen receptor (Homo sapiens, UniProt P10275)", "T5 sequence (P10275 whole entry)": "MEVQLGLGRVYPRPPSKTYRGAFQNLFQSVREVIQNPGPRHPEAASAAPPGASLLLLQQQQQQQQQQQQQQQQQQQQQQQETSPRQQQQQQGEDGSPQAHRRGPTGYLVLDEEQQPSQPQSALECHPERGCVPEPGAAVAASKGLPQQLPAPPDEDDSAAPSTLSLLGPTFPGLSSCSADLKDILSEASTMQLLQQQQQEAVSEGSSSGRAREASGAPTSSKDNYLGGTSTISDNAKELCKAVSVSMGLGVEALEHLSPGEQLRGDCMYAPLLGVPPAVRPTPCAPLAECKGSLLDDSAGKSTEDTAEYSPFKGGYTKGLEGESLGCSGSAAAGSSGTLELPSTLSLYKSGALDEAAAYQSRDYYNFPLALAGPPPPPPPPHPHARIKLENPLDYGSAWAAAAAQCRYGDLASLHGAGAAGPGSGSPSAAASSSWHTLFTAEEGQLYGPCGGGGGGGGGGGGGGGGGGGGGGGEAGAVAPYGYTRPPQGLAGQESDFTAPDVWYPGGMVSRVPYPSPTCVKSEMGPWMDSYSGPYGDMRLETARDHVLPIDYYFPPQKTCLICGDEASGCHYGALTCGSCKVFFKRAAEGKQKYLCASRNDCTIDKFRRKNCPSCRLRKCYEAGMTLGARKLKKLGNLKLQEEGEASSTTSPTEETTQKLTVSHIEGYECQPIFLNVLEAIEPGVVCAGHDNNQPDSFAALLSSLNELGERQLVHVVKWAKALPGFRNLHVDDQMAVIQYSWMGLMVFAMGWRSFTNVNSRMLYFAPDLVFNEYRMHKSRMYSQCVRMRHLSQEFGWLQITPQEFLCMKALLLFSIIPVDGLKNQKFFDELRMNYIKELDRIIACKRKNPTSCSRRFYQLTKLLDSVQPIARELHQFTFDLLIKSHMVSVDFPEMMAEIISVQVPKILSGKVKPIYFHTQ", "experiment": "Induction of AR degradation in human LNCaP cells", "assay_type": "cell-based"}, "[14]": {"molecular_target": "Bromodomain-containing protein 4 (Homo sapiens) (UniProt O60885)", "experiment": "Induction of BRD4 degradation in human HeLa cells relative to control", "assay_type": "cell-based"}, "[15]": {"molecular_target": "Bromodomain-containing protein 4 (Homo sapiens) (UniProt O60885)", "experiment": "Induction of BRD4 degradation in human MDA-MB-231 cells at 10 uM relative to control", "assay_type": "cell-based"}}, "note": "pIC50: −log10 of the molar value.", "data": [{"molecule": "Cc1ccccc1/N=N/c1ccc(/N=N/c2c(OCCCCCCCCCCOc3cc(O)cc4oc(=O)cc(-c5ccccc5)c34)ccc3ccccc23)c(C)c1", "values": [{"measurement": "ED", "setting": "[1]", "value": 5, "unit": "µM"}]}, {"molecule": "O=c1cc(-c2ccccc2)c2c(O)cc(O)cc2o1", "values": [{"measurement": "ED", "setting": "Cortical neuron", "value": 75, "unit": "nM"}]}, {"molecule": "Cc1ccc(C(=O)N(CCCNC(=O)CCCCCCCCN2CCN(S(=O)(=O)c3ccc(NC(=S)NCc4cccnc4)cc3)CC2)[C@@H](c2nc3cc(Cl)ccc3c(=O)n2Cc2ccccc2)C(C)C)cc1", "values": [{"measurement": "pIC50", "setting": "[2]", "value": 7.40}, {"measurement": "Activity", "setting": "[3]", "value": 91, "unit": "%"}]}, {"molecule": "COC1C(OC(=O)/C=C/C=C/C=C/C=C/C(=O)NCCOCCOCCNCc2cccc(OCc3ccccc3)c2)CCC2(CO2)C1C1(C)OC1CC=C(C)C", "note": "(centres undefined)", "values": [{"measurement": "DC50", "setting": "[4]", "value": 0.5, "unit": "µM"}, {"measurement": "DC50", "setting": "[5]", "value": 0.7, "unit": "µM"}]}, {"molecule": "O[C@H](CNCCOCCOCCOc1ccc(-c2c(-c3ccccc3)nn3c(C(F)(F)F)cc(C(F)(F)F)nc23)cc1)COc1ccc(OCc2ccccc2)c(OCCCc2ccccc2)c1", "values": [{"measurement": "DC50", "setting": "[6]", "value": "< 0.1", "unit": "µM"}, {"measurement": "DC50", "setting": "[7]", "value": "< 0.1", "unit": "µM"}, {"measurement": "DC50", "setting": "[8]", "value": 0.002, "unit": "µM"}, {"measurement": "DC50", "setting": "Estrogen receptor beta [9]", "value": 0.002, "unit": "µM"}, {"measurement": "DC50", "setting": "Estrogen receptor beta [10]", "value": "< 0.1", "unit": "µM"}, {"measurement": "DC50", "setting": "Estrogen receptor beta [11]", "value": "< 0.1", "unit": "µM"}]}, {"molecule": "H-GIYVIWGPITERKKRRKG-NH2", "values": [{"measurement": "pIC50", "setting": "[12]", "value": 7.24}]}, {"molecule": "O=C(CCCc1ccccc1)NCCOCCOCCOCCNCc1ccc(OCc2ccccc2)c(OCc2ccccc2)c1", "values": [{"measurement": "DC50", "setting": "[13]", "value": 0.001, "unit": "µM"}]}, {"molecule": "C=CC(C)(O)C(=O)N(C(=O)NCCOCCOCCNC[C@@H](O)COc1ccc(OCCc2ccccc2)c(OCCCc2ccccc2)c1)c1cc(Cl)cc(Cl)c1", "note": "(some centres undefined)", "values": [{"measurement": "DC50", "setting": "Androgen receptor", "value": 0.2, "unit": "µM"}]}, {"molecule": "CC1=C(C)C2C(c3ccc(Cl)cc3)=N[C@@H](CC(=O)NCCCOCCOCCOCCCNC(=O)COc3c(Br)cc(/C=C4\\C(=O)Nc5ccc(I)cc54)cc3Br)c3nnc(C)n3C2S1", "note": "(some centres undefined)", "values": [{"measurement": "Activity", "setting": "[14]", "value": 92, "unit": "%"}, {"measurement": "Activity", "setting": "[15]", "value": 99, "unit": "%"}]}, {"molecule": "Cc1ccccc1/N=N/c1ccc(/N=N/c2c(OCCCCCCCCCCN3C(=O)/C(=C\\c4cc(Br)c(O)c(Br)c4)c4cc(I)ccc43)ccc3ccccc23)c(C)c1", "values": [{"measurement": "ED", "setting": "[1]", "value": 5, "unit": "µM"}]}, {"molecule": "O=C1Nc2ccc(Br)cc2/C1=C/c1cc(O)c(O)c(Br)c1", "values": [{"measurement": "ED", "setting": "Cortical neuron", "value": 50, "unit": "nM"}]}]}
